{"source": "paper PMC10686834", "about": "“Targeting myeloid chemotaxis to reverse prostate cancer therapy resistance” (Nature, 2023)", "system": "patients with ARSI-resistant mCRPC", "experiment": "Phase 1 trial of AZD5069 plus enzalutamide: safety and tolerability (DLTs, treatment-emergent adverse events, NCI-CTCAE v.4.0)", "format": "in vivo", "source_text": "The primary trial objective was to evaluate the safety and tolerability of the combination. Key secondary objectives were to evaluate pharmacokinetic–pharmacodynamic parameters and antitumour activity.\nEligible patients were consenting patients aged ≥18 years, who had mCRPC with histologically confirmed prostate adenocarcinoma histology, documented cancer progression at the time of trial entry by Response Evaluation Criteria in Solid Tumors (v.1.1) and/or Prostate Cancer Working Group 2 criteria, and PSA of ≥10 ng ml^−1 at screening.\nThe dose-escalation phase used a rule-based 3 + 3 design, with an initial three patients enrolled per dose level. If none of the first three patients experienced a DLT, dose escalation proceeded to the next dose level. […] If fewer than two of six patients at any dose level experienced a DLT, dose escalation continued to the next level. If at least two out of up to six patients experienced a DLT, dose escalation stopped and this dose level was defined as the maximum administered dose. Once this maximum administered dose was defined, the maximum tolerated dose (MTD) was confirmed at the dose level below the maximum administered dose. At least six evaluable patients were required to establish the MTD at a specific dose level. […] Intra-patient dose escalation was not permitted. Start of dosing between the first and second patient enrolled to each dose level was staggered by 1 week. Once the MTD was determined in the phase 1 study, the recommended phase 2 dose was determined on the basis of available data, including but not limited to safety and response.\nDLTs were defined as described in the study protocol. […] Prophylaxis with growth factor support or antipyretics were not permitted. Investigators determined whether an adverse event was related to the study drugs. If a patient experienced clinically significant and/or unacceptable toxicity, including a DLT, not attributable to the disease or disease-related processes, dosing was interrupted or the dose was reduced and supportive therapy was administered as required.", "data": [{"smiles": "C[C@@H](Oc1cc(NS(=O)(=O)N2CCC2)nc(SCc2cccc(F)c2F)n1)[C@@H](O)CO", "note": "[AZD5069]", "values": [{"measurement": "TEAE Hypophosphataemia, All G", "setting": "AZD5069 80 mg BD (n=4)", "result": "1 (25) n (%)"}, {"measurement": "TEAE Hypophosphataemia, G≥3", "setting": "AZD5069 80 mg BD (n=4)", "result": "0 (0) n (%)"}, {"measurement": "TEAE Nausea, All G", "setting": "AZD5069 80 mg BD (n=4)", "result": "0 (0) n (%)"}, {"measurement": "TEAE Nausea, G≥3", "setting": "AZD5069 80 mg BD (n=4)", "result": "0 (0) n (%)"}, {"measurement": "TEAE Neutrophil decreased, All G", "setting": "AZD5069 80 mg BD (n=4)", "result": "3 (75) n (%)"}, {"measurement": "TEAE Neutrophil decreased, G≥3", "setting": "AZD5069 80 mg BD (n=4)", "result": "1 (25) n (%)"}, {"measurement": "TEAE Oedema genital, All G", "setting": "AZD5069 80 mg BD (n=4)", "result": "0 (0) n (%)"}, {"measurement": "TEAE Oedema genital, G≥3", "setting": "AZD5069 80 mg BD (n=4)", "result": "0 (0) n (%)"}, {"measurement": "TEAE Platelet decreased, All G", "setting": "AZD5069 80 mg BD (n=4)", "result": "0 (0) n (%)"}, {"measurement": "TEAE Platelet decreased, G≥3", "setting": "AZD5069 80 mg BD (n=4)", "result": "0 (0) n (%)"}, {"measurement": "TEAE Pruritus, All G", "setting": "AZD5069 80 mg BD (n=4)", "result": "0 (0) n (%)"}, {"measurement": "TEAE Pruritus, G≥3", "setting": "AZD5069 80 mg BD (n=4)", "result": "0 (0) n (%)"}, {"measurement": "TEAE Skin infection, All G", "setting": "AZD5069 80 mg BD (n=4)", "result": "1 (25) n (%)"}, {"measurement": "TEAE Skin infection, G≥3", "setting": "AZD5069 80 mg BD (n=4)", "result": "0 (0) n (%)"}, {"measurement": "TEAE Vomiting, All G", "setting": "AZD5069 80 mg BD (n=4)", "result": "0 (0) n (%)"}, {"measurement": "TEAE Vomiting, G≥3", "setting": "AZD5069 80 mg BD (n=4)", "result": "0 (0) n (%)"}, {"measurement": "TEAE White blood cell decreased, All G", "setting": "AZD5069 80 mg BD (n=4)", "result": "0 (0) n (%)"}, {"measurement": "TEAE White blood cell decreased, G≥3", "setting": "AZD5069 80 mg BD (n=4)", "result": "0 (0) n (%)"}, {"measurement": "TEAE Anemia, All G", "setting": "AZD5069 120 mg BD (n=3)", "result": "1 (33) n (%)"}, {"measurement": "TEAE Anemia, G≥3", "setting": "AZD5069 120 mg BD (n=3)", "result": "0 (0) n (%)"}, {"measurement": "TEAE Aphasia, All G", "setting": "AZD5069 120 mg BD (n=3)", "result": "0 (0) n (%)"}, {"measurement": "TEAE Aphasia, G≥3", "setting": "AZD5069 120 mg BD (n=3)", "result": "0 (0) n (%)"}, {"measurement": "TEAE Arthralgia, All G", "setting": "AZD5069 120 mg BD (n=3)", "result": "0 (0) n (%)"}, {"measurement": "TEAE Arthralgia, G≥3", "setting": "AZD5069 120 mg BD (n=3)", "result": "0 (0) n (%)"}, {"measurement": "TEAE Aspartate aminotransferase increased, All G", "setting": "AZD5069 120 mg BD (n=3)", "result": "0 (0) n (%)"}, {"measurement": "TEAE Aspartate aminotransferase increased, G≥3", "setting": "AZD5069 120 mg BD (n=3)", "result": "0 (0) n (%)"}, {"measurement": "TEAE Constipation, All G", "setting": "AZD5069 120 mg BD (n=3)", "result": "1 (33) n (%)"}, {"measurement": "TEAE Constipation, G≥3", "setting": "AZD5069 120 mg BD (n=3)", "result": "0 (0) n (%)"}, {"measurement": "TEAE Death, All G", "setting": "AZD5069 120 mg BD (n=3)", "result": "0 (0) n (%)"}, {"measurement": "TEAE Death, G≥3", "setting": "AZD5069 120 mg BD (n=3)", "result": "0 (0) n (%)"}, {"measurement": "TEAE Decreased appetite, All G", "setting": "AZD5069 120 mg BD (n=3)", "result": "0 (0) n (%)"}, {"measurement": "TEAE Decreased appetite, G≥3", "setting": "AZD5069 120 mg BD (n=3)", "result": "0 (0) n (%)"}, {"measurement": "TEAE Diarrhoea, All G", "setting": "AZD5069 120 mg BD (n=3)", "result": "0 (0) n (%)"}, {"measurement": "TEAE Diarrhoea, G≥3", "setting": "AZD5069 120 mg BD (n=3)", "result": "0 (0) n (%)"}, {"measurement": "TEAE Dry skin, All G", "setting": "AZD5069 120 mg BD (n=3)", "result": "0 (0) n (%)"}, {"measurement": "TEAE Dry skin, G≥3", "setting": "AZD5069 120 mg BD (n=3)", "result": "0 (0) n (%)"}, {"measurement": "TEAE Fatigue, All G", "setting": "AZD5069 120 mg BD (n=3)", "result": "1 (33) n (%)"}, {"measurement": "TEAE Fatigue, G≥3", "setting": "AZD5069 120 mg BD (n=3)", "result": "0 (0) n (%)"}, {"measurement": "TEAE Headache, All G", "setting": "AZD5069 120 mg BD (n=3)", "result": "0 (0) n (%)"}, {"measurement": "TEAE Headache, G≥3", "setting": "AZD5069 120 mg BD (n=3)", "result": "0 (0) n (%)"}, {"measurement": "TEAE Hypophosphataemia, All G", "setting": "AZD5069 120 mg BD (n=3)", "result": "0 (0) n (%)"}, {"measurement": "TEAE Hypophosphataemia, G≥3", "setting": "AZD5069 120 mg BD (n=3)", "result": "0 (0) n (%)"}, {"measurement": "TEAE Nausea, All G", "setting": "AZD5069 120 mg BD (n=3)", "result": "1 (33) n (%)"}, {"measurement": "TEAE Nausea, G≥3", "setting": "AZD5069 120 mg BD (n=3)", "result": "0 (0) n (%)"}, {"measurement": "TEAE Neutrophil decreased, All G", "setting": "AZD5069 120 mg BD (n=3)", "result": "3 (100) n (%)"}, {"measurement": "TEAE Neutrophil decreased, G≥3", "setting": "AZD5069 120 mg BD (n=3)", "result": "2 (67) n (%)"}, {"measurement": "TEAE Oedema genital, All G", "setting": "AZD5069 120 mg BD (n=3)", "result": "0 (0) n (%)"}, {"measurement": "TEAE Oedema genital, G≥3", "setting": "AZD5069 120 mg BD (n=3)", "result": "0 (0) n (%)"}, {"measurement": "TEAE Platelet decreased, All G", "setting": "AZD5069 120 mg BD (n=3)", "result": "1 (33) n (%)"}, {"measurement": "TEAE Platelet decreased, G≥3", "setting": "AZD5069 120 mg BD (n=3)", "result": "0 (0) n (%)"}, {"measurement": "TEAE Pruritus, All G", "setting": "AZD5069 120 mg BD (n=3)", "result": "0 (0) n (%)"}, {"measurement": "TEAE Pruritus, G≥3", "setting": "AZD5069 120 mg BD (n=3)", "result": "0 (0) n (%)"}, {"measurement": "TEAE Skin infection, All G", "setting": "AZD5069 120 mg BD (n=3)", "result": "0 (0) n (%)"}, {"measurement": "TEAE Skin infection, G≥3", "setting": "AZD5069 120 mg BD (n=3)", "result": "0 (0) n (%)"}, {"measurement": "TEAE Vomiting, All G", "setting": "AZD5069 120 mg BD (n=3)", "result": "0 (0) n (%)"}, {"measurement": "TEAE Vomiting, G≥3", "setting": "AZD5069 120 mg BD (n=3)", "result": "0 (0) n (%)"}, {"measurement": "TEAE White blood cell decreased, All G", "setting": "AZD5069 120 mg BD (n=3)", "result": "0 (0) n (%)"}, {"measurement": "TEAE White blood cell decreased, G≥3", "setting": "AZD5069 120 mg BD (n=3)", "result": "0 (0) n (%)"}, {"measurement": "TEAE Anemia, All G", "setting": "AZD5069 160 mg BD (n=6)", "result": "2 (33) n (%)"}, {"measurement": "TEAE Anemia, G≥3", "setting": "AZD5069 160 mg BD (n=6)", "result": "1 (17) n (%)"}, {"measurement": "TEAE Aphasia, All G", "setting": "AZD5069 160 mg BD (n=6)", "result": "0 (0) n (%)"}, {"measurement": "TEAE Aphasia, G≥3", "setting": "AZD5069 160 mg BD (n=6)", "result": "0 (0) n (%)"}, {"measurement": "TEAE Arthralgia, All G", "setting": "AZD5069 160 mg BD (n=6)", "result": "0 (0) n (%)"}]}]}
